Results: US12357622B2, “Pharmaceutical composition of S1PR modulators” (UNIVERSITA DEGLI STUDI DI FIRENZE, priority 2019, dated 2025)

How the values were obtained:
C2C12 myotubes [1] = experiment: Phase contrast microscopy of cellular morphology of C2C12 myotubes (diameter, number of myonuclei); assay type: cell-based, murine; settings: for effect on atrophic morphology (myotube diameter, number of myonuclei): modulator(s) before Dexa 100 μM for 48 hours
Protocol: (§1) C2C12 murine skeletal myoblasts obtained from the American Type Culture Collection (ATCC, Manassas, VA, USA) were cultured in Dulbecco's Modified Eagle's Medium (DMEM) (Sigma, Milan, Italy) with L-glutamine 1%, penicillin/streptomycin 1% (Sigma, Milan, Italy) and Foetal Bovine Serum 10% (FBS) (Sigma, Milan, Italy). For experiments with the myotubes, myoblasts were seeded in 6-wells plates at a concentration of 0.2×10^6 cells/ml. When the cells reached 90-100% confluence (72 hours after seeding), the medium was replaced with the differentiation medium (DM), consisting of DMEM containing antibiotics, glutamine and horse serum (HS) 2% (Sigma, Milan, Italy). The medium was changed every 24-48 hours. The complete cell differentiation was observed after 4-6 days of incubation with HS 2%. The C2C12 skeletal myotubes were incubated for 24-48 hours with the indicated compounds: Sphingosine 1-phosphate (S1P) 2 μM, or different concentration of CYM5520, VPC23019 and/or W146 (in the concentration range between 0.25 and 2 μM). CYM5478, TY52156 and siRNA specific for S1PR3 (NCBI ref NM_010101.4, sequence 5′-[…]-3 ′1118-1139 SEQ ID NO: 1, same size random oligonucleotides were used as negative control SCR-siRNA) were used in some of the experiments. The agonists/antagonists or S1PR3-siRNA or SCR-siRNA were added to the culture medium for 1 hour prior to treatment of the myotubes with dexamethasone (Dexa) 100 μM for 48 hours.
The images shown are representative of n. 5-6 observation frames for each treatment.
The C2C12 myoblasts were let to grow on a coverslip and when confluent they were moved on a differentiated medium for 4 days.
The C2C12 myotubes were grown on a coverslip and, when confluent, were moved onto a medium for the differentiation for 4 days. The cells were treated with the above reported combination of the three S1PR modulators before being incubated with Dexa for 48 hours. Then, the cells were fixed and observed with microscope.

Atrogin-1/MAFbx [2] = experiment: Western Blotting analysis of Atrogin-1/MAFbx protein levels in C2C12 myotubes (atrophy induced by dexamethasone or TNFα); assay type: cell-based, murine; settings: for effect on Dexa-induced expression of Atrogin-1/MAFbx (protein) / expression of Atrogin-1/MAFbx (protein): C2C12 myotubes; for effect on Dexa-induced expression of Atrogin-1/MAFbx (protein): modulator(s) added 1 hour before Dexa 100 μM for 48 hours, 2 μM CYM5520, 1 μM VPC23019, 2 μM W146, 2 μM FTY720; for expression of Atrogin-1/MAFbx (protein): modulator(s) in absence of Dexa, 2 μM CYM5520, 1 μM VPC23019, 2 μM W146
Protocol: as §1
The Western Blotting analysis was carried out for determining the protein levels of Atrogin-1/MAFbx in C2C12 myotubes. The cells were lysed at 4° C. with RIPA buffer containing TrisHCl 50 mM, pH 7.5, NaCl 120 mM, EDTA 1 mM, EGTA 6 mM, Na4P2O7 15 mM, NaF 20 mM, 1% of cocktail Nonidet and protease inhibitor (1.04 mM AEBSF, 0.08 mM of aprotinin, leupeptin 0.02 mM, bestatin 0.04 mM, pepstatin A […], E-64 […] (Sigma, St. Louis, MO, USA). The lysates were centrifuged at 600× g for 6 min at 4° C., and the proteins concentration was measured by using the Bradford assay (Bio-Rad, Hercules, CA). Aliquots containing 40 μg of proteins were diluted in loading buffer 2× (10% SDS, 50% glycerol, 0.25% bromophenol blue and 0.25 M Tris-HCl, pH 6.8) and boiled at 90° C. for 10 minutes to denature proteins. The samples were subjected to SDS-polyacrylamide 10-12% (SDS-PAGE) gel electrophoresis and to Western blotting on Amersham Hybond p 0.45 PVDF membrane (GE Healthcare, Buckinghamshire, UK). […] After blocking, the membranes were washed in PBST and then incubated overnight with a 1:1000 dilution of the primary antibody comprising rabbit polyclonal antibody with Atrogin-1/MAFbx. After sufficient washings with PBST, the membranes were incubated for 1 hour at room temperature with secondary antibodies conjugated with goat anti-rabbit or goat anti-mouse horseradish peroxidase (Santa Cruz, Texas, USA) at dilution 1:10.000/1:5.000. Following three washings with PBST, the bands corresponding to the immunoreactive proteins were seen by using reagents for the detection of the Western blotting ECL (GE Healthcare, Buckinghamshire, UK); and finally, the membranes were exposed to a high performance chemiluminescence film (GE Healthcare, Buckinghamshire, UK). The identity of the bands on the Western Blot membranes was confirmed by comparing them with a high-precision marker having a known molecular weight (BioRad, Hercules, CA). Densitometric analysis of the bands was performed by using NIH IMAGE J (ImageJ software, Bethesda, MD, USA) and Quantity-One (imaging and analysis software from Bio-Rad Laboratories, Hercules, CA) and the intensity of the band was indicated as a relative percentage (mean and standard deviation from the mean), obtained by calculating the ratio of the specific protein with respect to the β-actin intensity and normalizing it to the control, set to 1.
To test the role of exogenous S1Ps, the terminally differentiated myotubes were treated with the bioactive lipid.

Atrogin-1/MAFbx [3] = settings: C2C12 myotubes, cited from earlier work
C2C12 myotubes [4] = settings: cited from earlier work
S1PR3 receptor = experiment: Silencing of the expression of the S1PR3 receptor by siRNA in C2C12 myotubes; assay type: cell-based; settings: incubation with siRNA specific for mouse S1PR3
Protocol: C2C12 murine skeletal myoblasts obtained from the American Type Culture Collection (ATCC, Manassas, VA, USA) were cultured in Dulbecco's Modified Eagle's Medium (DMEM) (Sigma, Milan, Italy) with L-glutamine 1%, penicillin/streptomycin 1% (Sigma, Milan, Italy) and Foetal Bovine Serum 10% (FBS) (Sigma, Milan, Italy). For experiments with the myotubes, myoblasts were seeded in 6-wells plates at a concentration of 0.2×10^6 cells/ml. When the cells reached 90-100% confluence (72 hours after seeding), the medium was replaced with the differentiation medium (DM), consisting of DMEM containing antibiotics, glutamine and horse serum (HS) 2% (Sigma, Milan, Italy). The medium was changed every 24-48 hours. The complete cell differentiation was observed after 4-6 days of incubation with HS 2%. The C2C12 skeletal myotubes were incubated for 24-48 hours with the indicated compounds: Sphingosine 1-phosphate (S1P) 2 μM, or different concentration of CYM5520, VPC23019 and/or W146 (in the concentration range between 0.25 and 2 μM). CYM5478, TY52156 and siRNA specific for S1PR3 (NCBI ref NM_010101.4, sequence 5′-CGGGGUCCUCUGCAAGUGA-3 ′1118-1139 SEQ ID NO: 1, same size random oligonucleotides were used as negative control SCR-siRNA) were used in some of the experiments. […]

[5] = composition of the invention with CYM5520 replaced by the named compound (2 μM), in the presence of Dexa

Compound	effect on atrophic morphology (myotube diameter, number of myonuclei) (C2C12 myotubes [1]; C2C12 myotubes)	effect on Dexa-induced expression of Atrogin-1/MAFbx (protein) (Atrogin-1/MAFbx [2])	expression of Atrogin-1/MAFbx (protein) (Atrogin-1/MAFbx [2])	further results
CCCCCCCCc1cccc(NC(=O)C(N)COP(=O)(O)O)c1 (stereo not shown) [VPC23019, [2-amino-2-(3-octyl-phenylcarbamoyl)-ethyl] ester of phosphoric acid]	not significantly reduced	did not counteract the effect of Dexa	did not induce	–
CCCCCCCCc1ccc(CCC(N)(CO)CO)cc1 [FTY720]	–	not affected	–	formation of autophagic vesicles (morphological analysis) (C2C12 myotubes [1]; C2C12 myotubes, FIG. 3C): promote the formation of small autophagic vesicles
CCCCCCc1cccc(NC(=O)[C@H](N)CCP(=O)(O)O)c1 [Combination W146]	not significantly reduced	did not counteract the effect of Dexa	did not induce	–
Cc1cc(C(=O)Cn2cc(C#N)ccc2=O)c(C)n1Cc1ccccc1 [CYM5520]	not significantly reduced	only slightly counteracted the GC effect	no increase was observed	–
Cc1cc(C(=O)Cn2cc(C(F)(F)F)ccc2=O)c(C)n1Cc1ccccc1 [CYM5478]	–	–	–	effect on cellular morphology (C2C12 myotubes [1]; [5]): effect comparable with that obtained with the combination of the invention; effect on expression of Atrogin-1/MAFbx (Atrogin-1/MAFbx [2]; [5]): effect comparable with that obtained with the combination of the invention
CCCCCCCCCCCCC/C=C/[C@@H](O)[C@@H](N)COP(=O)(O)O [Combination S1P, Sphingosine 1-phosphate]	–	–	–	Atrogin-1/MAFbx level (Atrogin-1/MAFbx [3]; S1P (1 μM) before Dexa 100 μM for 48 hours, FIG. 1 state of the art): reduce the Atrogin-1/MAFbx level, restoring the basal levels; expression of Atrogin-1/MAFbx (Atrogin-1/MAFbx [3]; S1P (1 μM) without Dexa, FIG. 1A state of the art): significantly increase; cell morphology and number of nuclei (C2C12 myotubes [4]; Dexa-treated cells in the presence of S1P, state of the art): no significant changes; morphological parameters of the myotubes (diameter and number of myonuclei) (C2C12 myotubes [4]; S1P without Dexa, FIG. 1B, 1C state of the art): slightly change
S1PR3-siRNA: double-stranded RNA of 21 nucleotides, SEQ ID NO:1, silencing the expression of the S1PR3 receptor (CGGGGUCCUCUGCAAGUGA; combined with other compounds, further chemistry not given here) [Combination S1PR3-siRNA]	–	–	–	reduction of expression of the S1PR3 protein (S1PR3 receptor): 40%; reduction of expression of the S1PR3 protein (S1PR3 receptor; listed as SEQ ID NO:1): about 40%
